Patent US20210040118A1, “IMMUNOMODULATORS, COMPOSITIONS AND METHODS THEREOF” (BETTA PHARMACEUTICALS CO., LTD, priority 2018, published 2021)

Molecular target: T1, PD-1/PD-L1 (Homo sapiens, UniProt Q9NZQ7)
T1 construct: Recombinant human PD-L1 protein (19-238) with a His-tag at the C-terminus; purchased AcroBiosystems PD1-H5229 (PD-L1); PD1-H5257 (PD-1)
Assay: PD-1/PD-L1 homogenous time-resolved fluorescence (HTRF) binding assay
Settings: recombinant human PD-L1 (19-238) His-tag / human PD-1 (25-167) Fc tag
Experimental: Resolved Fluorescence (HTRF) Binding Assay
The assays were conducted in a standard black 384-well polystyrene plate with a final volume of 20 μL. Inhibitors were first serially diluted in DMSO and then added to the plate wells before the addition of other reaction components. The final concentration of DMSO in the assay was 1%. The assays were carried out at 25° C. in the PBS buffer (pH 7.4) with 0.05% Tween-20 and 0.1% BSA. Recombinant human PD-L1 protein (19-238) with a His-tag at the C-terminus was purchased from AcroBiosy stems (PD1-H5229). Recombinant human PD-1 protein (25-167) with Fc tag at the C-terminus was also purchased from AcroBiosystems (PD1-H5257). PD-L1 and PD-1 proteins were diluted in the assay buffer and 10 μL was added to the plate well. Plates were centrifuged and proteins were preincubated with inhibitors for 40 min. The incubation was followed by the addition of […] of HTRF detection buffer supplemented with Europium cryptate-labeled anti-human IgG (PerkinElmer-AD0212) specific for Fc and anti-His antibody conjugated to SureLight®-Allophycocyanin (APC, PerkinElmer-AD0059H). After centrifugation, the plate was incubated at 25° C. for 60 min. Before reading on a PHERAstar FS plate reader (665 nm/620 nm ratio). Final concentrations in the assay were […] PD1, 10 nM PD-L1, 1 nM europium anti-human IgG and 20 nM anti-His-Allophycocyanin. IC50 determination was performed by fitting the curve of percent control activity versus the log of the inhibitor concentration using the GraphPad Prism 5.0 software.
Data obtained for the Example compounds using the PD-1/PD-L1 homogenous time-resolved fluorescence (HTRF) binding assay described in Example A is provided in Table 4.

T1 sequence (Q9NZQ7 19-238): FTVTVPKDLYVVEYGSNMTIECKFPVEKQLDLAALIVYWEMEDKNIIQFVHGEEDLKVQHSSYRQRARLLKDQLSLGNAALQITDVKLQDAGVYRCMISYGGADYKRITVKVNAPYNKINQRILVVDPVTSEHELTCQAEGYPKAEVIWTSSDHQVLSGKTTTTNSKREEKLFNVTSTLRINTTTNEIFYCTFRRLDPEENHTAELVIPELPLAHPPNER

Compound: Cc1c(NC(=O)c2nnc(C3(N)CCC3)s2)cccc1-c1cccc(NC(=O)c2nnc(C3(N)CCC3)s2)c1C [Example 27, N,N′-(2,2′-dimethyl-[1,1′-biphenyl]-3,3′-diyl)bis(5-(1-aminocyclobutyl)-1,3,4-thiadiazole-2-carboxamide)]
- IC50 (numeric values): 3.13 nM

Compound: NC(=S)NCCN1CCc2nc(C(=O)N3CCc4c(-c5cccc6c5CCN6C(=O)c5nc6c(s5)CN(CCNC(N)=S)CC6)cccc43)sc2C1 [Example 133, 1,1′-((([4,4′-biindoline]-1,1′-dicarbonyl)bis(6,7-dihydrothiazolo[5,4-c]pyridine2,5(4H)-diyl))bis(ethane-2,1-diyl))bis(thiourea)]
- IC50 (class symbols): < 25 nM

Compound: 2-((3′-(6,6-dimethyl-5,6,7,8-tetrahydro-614-1,6-naphthyridin-7-ylium-2-carboxamido)-2,2′-dimethyl-[1,1′-biphenyl]-3-yl)carbamoyl)-6,6-dimethyl-5,6,7,8-tetrahydro-1,6-naphthyridin-6-ium chloride [Example 171]
- IC50 (class symbols): < 25 nM

Compound: CCOC(=O)CNC(C)c1cnc(C(=O)Nc2cccc(-c3cccc(NC(=O)c4cnc(C(C)NCC(=O)OCC)cn4)c3C)c2C)cn1 (centres unmarked) [Example 179, diethyl 2,2′-((((((2,2′-dimethyl-[1,1′-biphenyl]-3,3′-diyl)bis(azanediyl))bis(carbonyl))bis(pyrazine-5,2-diyl))bis(ethane-1,1-diyl))bis(azanediyl))diacetate]
- IC50 (class symbols): 25 to 100 nM

Compound: Cc1c(Nc2nccc3cc(CNCC(=O)O)cnc23)cccc1-c1cccc(Nc2nccc3cc(CNCC(=O)O)cnc23)c1C [Example 138, 2,2′-(((((2,2′-dimethyl-[1,1′-biphenyl]-3,3′-diyl)bis(azanediyl))bis(1,7-naphthyridine-8,3-diyl))bis(methylene))bis(azanediyl))diacetic acid]
- IC50 (class symbols): < 25 nM

Compound: COB(CCCN1CCc2nc(C(=O)N3CCc4c(-c5cccc6c5CCN6C(=O)c5nc6c(s5)CN(CCCB(OC)OC)CC6)cccc43)sc2C1)OC [Example 122, tetramethyl((([4,4′-biindoline]-1,1′-dicarbonyl)bis(6,7-dihydrothiazolo[5,4-c]pyridine-2,5(4H)-diyl))bis(propane-3,1-diyl))diboronate]
- IC50 (class symbols): < 25 nM

Compound: Cc1c(NC(=O)c2nc3c(s2)CN(C(C)C)CC3)cccc1-c1cccc(NC(=O)c2nc3c(s2)CN(C(C)C)CC3)c1C [Example 77, N,N′-(2,2′-dimethyl-[1,1′-biphenyl]-3,3′-diyl)bis(5-isopropyl-4,5,6,7-tetrahydrothiazolo[5,4-c]pyridine-2-carboxamide)]
- IC50 (class symbols): 25 to 100 nM

Compound: O=C(c1nc2c(s1)CNCC2)N1CCc2c(-c3cccc4c3CCN4C(=O)c3nc4c(s3)CNCC4)cccc21 [Example 33, [4,4′-biindoline]-1,1′-diylbis((4,5,6,7-tetrahydrothiazolo[5,4-c]pyridin-2-yl)methanone)]
- IC50 (numeric values): 0.21 nM

Compound: O=C(c1nc2c(s1)CN(CCF)CC2)N1CCc2c(-c3cccc4c3CCN4C(=O)c3nc4c(s3)CN(CCF)CC4)cccc21 [Example 87, [4,4′-biindoline]-1,1′-diylbis((5-(2-fluoroethyl)-4,5,6,7-tetrahydrothiazolo[5,4-c]pyridin-2-yl)methanone)]
- IC50 (class symbols): < 25 nM

Compound: Cc1c(NC(=O)c2nnc(C(C)N)o2)cccc1-c1cccc(NC(=O)c2nnc(C(C)N)o2)c1C (centres unmarked) [Example 19, N,N′-(2,2′-dimethyl-[1,1′-biphenyl]-3,3′-diyl)bis(5-(1-aminoethyl)-1,3,4-oxadiazole-2-carboxamide)]
- IC50 (class symbols): 25 to 100 nM

Compound: Cc1c(Nc2nccc3cc(CNCC(N)=O)cnc23)cccc1-c1cccc2c1CCN2C(=O)C1=NC2CCN(CC(=O)O)CC2S1 (centres unmarked) [Example 164, 2-(2-(4-(3-((3-(((2-amino-2-oxoethyl)amino)methyl)-1,7-naphthyridin-8-yl)amino)-2-methylphenyl)indoline-1-carbonyl)-3a,6,7,7a-tetrahydrothiazolo[5,4-c]pyridin-5(4H)-yl)acetic acid]
- IC50 (class symbols): < 25 nM

Compound: COC(=O)NCCNCc1cnc2c(Nc3cccc(-c4cccc(Nc5nccc6cc(CNCCNC(=O)OC)cnc56)c4C)c3C)nccc2c1 [Example 158, dimethyl ((((((2,2′-dimethyl-[1,1′-biphenyl]-3,3′-diyl)bis(azanediyl))bis(1,7-naphthyridine-8,3-diyl))bis(methylene))bis(azanediyl))bis(ethane-2,1-diyl))dicarbamate]
- IC50 (class symbols): < 25 nM

Compound: CC(=O)N1CCc2c(nc(C(=O)Nc3cccc(-c4cccc(NC(=O)c5ccc6c(n5)CCNC6)c4C)c3C)n2C)C1 [Example 183, N-(3′-(5-acetyl-1-methyl-4,5,6,7-tetrahydro-1H-imidazo[4,5-c]pyridine-2-carboxamido)-2,2′-dimethyl-[1,1′-biphenyl]-3-yl)-5,6,7,8-tetrahydro-1,6-naphthyridine-2-carboxamide]
- IC50 (class symbols): < 25 nM

Compound: Cc1nc(C(=O)Nc2cccc(-c3cccc(NC(=O)c4nc(C)c(CN[C@H](C(=O)O)C5CCOCC5)s4)c3Cl)c2C)sc1CN[C@H](C(=O)O)C1CCOCC1 [Example 55, (2S,2'S)-2,2′-(2,2′-(2-chloro-2′-methylbiphenyl-3,3′-diyl)bis(azanediyl)bis(oxomethylene)bis(4-methylthiazole-5,2-diyl))bis(methylene)bis(azanediyl)bis(2-(tetrahydro-2H-pyran-4-yl)acetic acid)]
- IC50 (class symbols): < 25 nM

Compound: Cc1c(NC(=O)c2nc3c(o2)CNCC3)cccc1-c1cccc(NC(=O)c2nc3c(s2)CNCC3)c1C [Example 14, N-(2,2′-dimethyl-3′-(4,5,6,7-tetrahydrothiazolo[5,4-c]pyridine-2-carboxamido)-[1,1′-biphenyl]-3-yl)-4,5,6,7-tetrahydrooxazolo[5,4-c]pyridine-2-carboxamide]
- IC50 (class symbols): < 25 nM

Compound: COC(=O)NCCN1CCc2nc(C(=O)N3CCc4c(-c5cccc6c5CCN6C(=O)c5nc6c(s5)CN(CCNC(=O)OC)CC6)cccc43)sc2C1 [Example 130, dimethyl ((([4,4′-biindoline]-1,1′-dicarbonyl)bis(6,7-dihydrothiazolo[5,4-c]pyridine-2,5(4H)-diyl))bis(ethane-2,1-diyl))dicarbamate]
- IC50 (class symbols): < 25 nM

Compound: NC(=O)CN1CCc2nc(C(=O)N3CCc4c(-c5cccc6c5CCN6C(=O)c5nc6c(s5)CN(CC(N)=O)CC6)cccc43)sc2C1 [Example 104, 2,2′-(([4,4′-biindoline]-1,1′-dicarbonyl)bis(6,7-dihydrothiazolo[5,4-c]pyridine-2,5(4H)-diyl))diacetamide]
- IC50 (class symbols): < 25 nM

Compound: Cc1c(Nc2nccc3cc(CN[C@@H](C)C(=O)O)cnc23)cccc1-c1cccc2c1CCN2C(=O)C1=NC2CCN(CC(=O)O)CC2S1 (some centres unmarked) [Example 163, ((8-((3-(1-(5-(carboxymethyl)-3a,4,5,6,7,7a-hexahydrothiazolo[5,4-c]pyridine-2-carbonyl)indolin-4-yl)-2-methylphenyl)amino)-1,7-naphthyridin-3-yl)methyl)alanine]
- IC50 (class symbols): < 25 nM

Compound: COC(=O)N[C@H](C(=O)N1CCc2nc(C(=O)Nc3cccc(-c4cccc(NC(=O)c5ccc6c(n5)CCN(C(=O)[C@@H](NC(=O)OC)C(C)C)C6)c4C)c3C)ccc2C1)C(C)C [Example 169, dimethyl ((2S,2'S)-((((2,2′-dimethyl-[1,1′-biphenyl]-3,3′-diyl)bis(azanediyl))bis(carbonyl))bis(7,8-dihydro-1,6-naphthyridine-2,6(5H)-diyl))bis(3-methyl-1-oxobutane-1,2-diyl))dicarbamate]
- IC50 (class symbols): < 25 nM

Compound: Cc1c(NC(=O)c2ccc3c(n2)CCNC3)cccc1-c1cccc(NC(=O)c2ccc3c(n2)CCN(C)C3)c1C [Example 185, N-(2,2′-dimethyl-3′-(5,6,7,8-tetrahydro-1,6-naphthyridine-2-carboxamido)-[1,1′-biphenyl]-3-yl)-6-methyl-5,6,7,8-tetrahydro-1,6-naphthyridine-2-carboxamide]
- IC50 (class symbols): < 25 nM

Compound: N#Cc1c(NC(=O)c2cn3c(n2)CNCC3)cccc1-c1cccc(NC(=O)c2cn3c(n2)CNCC3)c1C#N [Example 40, N,N′-(2,2′-dicyano-[1,1′-biphenyl]-3,3′-diyl)bis(5,6,7,8-tetrahydroimidazo[1,2-a]pyrazine-2-carboxamide)]
- IC50 (class symbols): < 25 nM

Compound: Cc1nc(C(=O)Nc2cccc(-c3cccc(NC(=O)c4nc(C)c(CN5CCCC[C@H]5C(=O)O)s4)c3Cl)c2C)sc1CN1CCCC[C@H]1C(=O)O [Example 54, (2S,2'S)-1,1′-(2,2′-(2-chloro-2′-methylbiphenyl-3,3′-diyl)bis(azanediyl)bis(oxomethylene)bis(4-methylthiazole-5,2-diyl))bis(methylene)dipiperidine-2-carboxylic acid]
- IC50 (class symbols): < 25 nM

Compound: Cc1c(Nc2nccc3cc(CNCCO)cnc23)cccc1-c1cccc2c1CCN2C(=O)C1=NC2CCN(CCC(=O)O)CC2S1 (centres unmarked) [Example 162, 3-(2-(4-(3-((3-(((2-hydroxyethyl)amino)methyl)-1,7-naphthyridin-8-yl)amino)-2-methylphenyl)indoline-1-carbonyl)-3a,6,7,7a-tetrahydrothiazolo[5,4-c]pyridin-5(4H)-yl)propanoic acid]
- IC50 (class symbols): < 25 nM
